# Source: patent US20240132464A1, “HETEROCYCLIC COMPOUNDS AS E3 LIGASE INHIBITORS” (Accutar Biotechnology Inc., priority 2022, published 2024)
# pIC50: −log10 of the molar value.
# Target: T1, GID4 (Uniprot ID: Q81VV7, residues 124-289) (Homo sapiens, UniProt Q8IVV7)
# T1 construct: GID4 (Uniprot ID: Q81VV7, residues 124-289)
# T1 sequence (Q8IVV7 124-289): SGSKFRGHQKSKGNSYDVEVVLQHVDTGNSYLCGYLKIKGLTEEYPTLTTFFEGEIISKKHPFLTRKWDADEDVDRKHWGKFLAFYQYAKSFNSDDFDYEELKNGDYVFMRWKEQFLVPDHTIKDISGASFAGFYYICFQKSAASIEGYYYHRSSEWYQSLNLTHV
# Assay: GID4 competitive binding assay (AlphaScreen, GID4/degron peptide PGLW)
# Conditions: 24 nM GID4, 48 nM biotinylated degron peptide PGLW, 4° C., read-out: IC50 (Inhibition of GID4/Degron binding by test compounds)
# Summary of the method: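 Displacement of biotin-tagged degron tetrapeptide PGLW (48 nM) from C-terminally 6His-tagged GID4 124-289 (24 nM) read by AlphaScreen proximity signal. Compound incubation 2 h, then beads 1 h, all at 4 °C, pH 7.5, 2% DMSO final; background-corrected inhibition fitted with variable slope for IC50.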
row,SMILES,pIC50
1,"Nc1nc(NC2CC2)cc(N2CCO[C@@H](c3ccccc3Br)C2)n1 (stereo in doubt) [Compound 98, (S/R)-6-(2-(2-bromophenyl)morpholino)-N4-cyclopropylpyrimidine-2,4-diamine]",> 6.30
2,"CNc1nc(N)cc(N2CCCC(c3ccccc3Br)C2)n1 (stereo not shown) [Compound 85, 6-(3-(2-bromophenyl)piperidin-1-yl)-N^2-methylpyrimidine-2,4-diamine]",5.30 to 6.30
3,"Nc1cc(N2CCCC(n3cnc4ccccc43)C2)nc(N)n1 (stereo not shown) [Compound 260, 6-(3-(1H-benzo[d]imidazol-1-yl)piperidin-1-yl)pyrimidine-2,4-diamine]",< 5.30
4,"Cc1ccccc1C1CN(c2cc(C(C)C)nc(N)n2)CCN1 (stereo not shown) [Compound 177, 4-isopropyl-6-(3-(o-tolyl)piperazin-1-yl)pyrimidin-2-amine]",< 5.30
5,"CN(C)CCCNC(=O)c1ccc(-c2cc(O)c3ncccc3c2)c(F)c1 [Compound 325, N-(3-(dimethylamino)propyl)-3-fluoro-4-(8-hydroxyquinolin-6-yl)benzamide]",5.30 to 6.30
6,"CC(C)c1cc(N2CCNC(c3c[nH]c4ccccc34)C2)nc(N)n1 (stereo not shown) [Compound 138, 4-(3-(1H-indol-3-yl)piperazin-1-yl)-6-isopropylpyrimidin-2-amine]",5.30 to 6.30
7,"Nc1nc(NC2CC2)nc(N2CCOC(c3ccccc3Br)C2)n1 (stereo not shown) [Compound 61, 6-(2-(2-bromophenyl)morpholino)-N2-cyclopropyl-1,3,5-triazine-2,4-diamine]",5.30 to 6.30
8,"CN1CCN(c2cc(NCC3CC3)nc(N)n2)C[C@@H]1c1ccccc1Br (racemic) [Compound 100, (S/R)-6-(3-(2-bromophenyl)-4-methylpiperazin-1-yl)-N4-(cyclopropylmethyl)pyrimidine-2,4-diamine]",< 5.30
9,"CC(C)c1nc(N2CCCC(c3cnc4ccccn34)C2)c2cc[nH]c2n1 (stereo not shown) [Compound 374, 4-(3-(imidazo[1,2-a]pyridin-3-yl)piperidin-1-yl)-2-isopropyl-7H-pyrrolo[2,3-d]pyrimidine]",> 6.30
10,"CNc1nc(C(C)C)cc(N2CCCC(c3cnc4ccccn34)C2)n1 (stereo not shown) [Compound 134, 4-(3-(imidazo[1,2-a]pyridin-3-yl)piperidin-1-yl)-6-isopropyl-N-methylpyrimidin-2-amine]",> 6.30
11,"Nc1nc(N2CCOC(c3ccccc3Br)C2)c2[nH]ccc2n1 (single isomer, unassigned) [Compound 46, (R/S)-4-(2-(2-bromophenyl)morpholino)-5H-pyrrolo[3,2-d]pyrimidin-2-amine]",5.30 to 6.30
12,"CC(C)c1cc(N2CCN[C@@H](c3cc(C(F)(F)F)ccc3Br)C2)nc(N)n1 (racemic) [Compound 14, (S/R)-4-(3-(2-bromo-5-(trifluoromethyl)phenyl)piperazin-1-yl)-6-isopropylpyrimidin-2-amine]",5.30 to 6.30
13,"CN1CCN(c2cc(N)nc(N)n2)CC1c1ccccc1Br (single isomer, unassigned) [Compound 143, (R/S)-6-(3-(2-bromophenyl)-4-methylpiperazin-1-yl)pyrimidine-2,4-diamine]",> 6.30
14,"Nc1nc(N2CCO[C@@H](c3ccccc3Br)C2)c2cc[nH]c2n1 (racemic) [Compound 40, (S/R)-4-(2-(2-bromophenyl)morpholino)-7H-pyrrolo[2,3-d]pyrimidin-2-amine]",5.30 to 6.30
15,"CNC(=O)c1ccc2nnc(C3CCCN(c4cc(C(C)C)nc(N)n4)C3)n2c1 (stereo not shown) [Compound 166, 3-(1-(2-amino-6-isopropylpyrimidin-4-yl)piperidin-3-yl)-N-methyl-[1,2,4]triazolo[4,3-a]pyridine-6-carboxamide]",< 5.30
16,"CNc1cc(N2CCN(C)C(c3ccccc3)C2)nc(N)n1 (stereo not shown) [Compound 110, N4-methyl-6-(4-methyl-3-phenylpiperazin-1-yl)pyrimidine-2,4-diamine]",5.30 to 6.30
17,"CN(C)CCCNC(=O)c1cc(F)c(-c2cc(O)c3ncccc3c2)cc1Cl [Compound 315, 2-chloro-N-(3-(dimethylamino)propyl)-5-fluoro-4-(8-hydroxyquinolin-6-yl)benzamide]",> 6.30
18,"CN(C)CCCNC(=O)N1CC=C(c2cc(O)c3ncccc3c2)CC1 [Compound 306, N-(3-(dimethylamino)propyl)-4-(8-hydroxyquinolin-6-yl)-3,6-dihydropyridine-1(2H)-carboxamide]",5.30 to 6.30
19,CNc1cc(N2CCNC(c3ccccc3Br)C2)nc(N)n1 (stereo not shown) [Compound 167],> 6.30
20,"CN(C)CCCNC(=O)c1ncc(-c2cc(O)c3ncccc3c2)cn1 [Compound 271, N-(3-(dimethylamino)propyl)-5-(8-hydroxyquinolin-6-yl)pyrimidine-2-carboxamide]",> 6.30

row,SMILES,pIC50
1,"CC(C)c1nc(N)cc(N2CCN(C)C(c3ccccc3Br)C2)n1 (stereo not shown) [Compound 74, 6-(3-(2-bromophenyl)-4-methylpiperazin-1-yl)-2-isopropylpyrimidin-4-amine]",5.30 to 6.30
2,"CC(C)c1cc(N2CCCC(c3ncn4ccccc34)C2)nc(N)n1 (stereo not shown) [Compound 235, 4-(3-(imidazo[1,5-a]pyridin-1-yl)piperidin-1-yl)-6-isopropylpyrimidin-2-amine]",> 6.30
3,"Nc1nc(NC2CC2)cc(N2CCN(CCO)[C@@H](c3ccccc3Br)C2)n1 (racemic) [Compound 45, (S/R)-2-(4-(2-amino-6-(cyclopropylamino)pyrimidin-4-yl)-2-(2-bromophenyl)piperazin-1-yl)ethan-1-ol]",> 6.30
4,"CC(C)c1cc(Nc2cccc(-c3cnccn3)c2)nc(N)n1 [Compound 198, 6-isopropyl-N4-(3-(pyrazin-2-yl)phenyl)pyrimidine-2,4-diamine]",< 5.30
5,"CC(C)c1cc(N2CCNC(c3cc(C(=O)NCCN(C)C)ccc3Br)C2)nc(N)n1 (single isomer, unassigned) [Compound 20, R or S-3-(4-(2-amino-6-isopropylpyrimidin-4-yl)piperazin-2-yl)-4-bromo-N-(2-(dimethylamino)ethyl)benzamide]",5.30 to 6.30
6,"Nc1nc(NC2CC2)cc(N2CCN[C@@H](c3ccccc3Br)C2)n1 (racemic) [Compound 122, (S/R)-6-(3-(2-bromophenyl)piperazin-1-yl)-N4-cyclopropylpyrimidine-2,4-diamine]",> 6.30
7,"Nc1cc(N2CCCC(c3ncn4ccccc34)C2)nc(N)n1 (stereo not shown) [Compound 225, 6-(3-(imidazo[1,5-a]pyridin-1-yl)piperidin-1-yl)pyrimidine-2,4-diamine]",5.30 to 6.30
8,"CN(C)CCNC(=O)c1csc2ccc(-c3ccc4ccnc(N)c4c3)cc12 [Compound 355, 5-(1-aminoisoquinolin-7-yl)-N-(2-(dimethylamino)ethyl)benzo[b]thiophene-3-carboxamide]",5.30 to 6.30
9,"CNc1cc(N2CCOC(c3ccccc3)C2)nc(N)n1 (single isomer, unassigned) [Compound 108, (R/S)-N4-methyl-6-(2-phenylmorpholino)pyrimidine-2,4-diamine]",< 5.30
10,"CN(C)CCCNC(=O)c1ccc(-c2cc(O)c3c(c2)CCCN3)cc1 [Compound 284, N-(3-(dimethylamino)propyl)-4-(8-hydroxy-1,2,3,4-tetrahydroquinolin-6-yl)benzamide]",< 5.30
11,"CCOc1ccc(Br)c(C2CN(c3cc(C(C)C)nc(N)n3)CCN2)c1 (single isomer, unassigned) [Compound 26, (S/R)-4-(3-(2-bromo-5-ethoxyphenyl)piperazin-1-yl)-6-isopropylpyrimidin-2-amine]",5.30 to 6.30
12,"CC(C)c1cc(N2Cc3ccnn3C(c3ccccc3Br)C2)nc(N)n1 (stereo not shown) [Compound 2, 4-(7-(2-bromophenyl)-6,7-dihydropyrazolo[1,5-a]pyrazin-5(4H)-yl)-6-isopropylpyrimidin-2-amine]",5.30 to 6.30
13,"CNCCCNC(=O)c1ccc(-c2cc(O)c3ncccc3c2)cc1 [Compound 303, 4-(8-hydroxyquinolin-6-yl)-N-(3-(methylamino)propyl)benzamide]",> 6.30
14,"CN(C)CCCNC(=O)c1cnc(-c2cc(O)c3ncccc3c2)s1 [Compound 274, N-(3-(dimethylamino)propyl)-2-(8-hydroxyquinolin-6-yl)thiazole-5-carboxamide]",> 6.30
15,"CN(C)CCCNC(=O)c1ccc(-c2cc3cccnc3c(O)c2Cl)cc1 [Compound 321, 4-(7-chloro-8-hydroxyquinolin-6-yl)-N-(3-(dimethylamino)propyl)benzamide]",> 6.30
16,"CN1CCN(c2cc(NCC3CC3)nc(N)n2)CC1c1ccccc1Br (single isomer, unassigned) [Compound 99, (R/S)-6-(3-(2-bromophenyl)-4-methylpiperazin-1-yl)-N4-(cyclopropylmethyl)pyrimidine-2,4-diamine]",> 6.30
17,"Nc1cc(Nc2cccc(-c3cnccn3)c2)nc(N)n1 [Compound 192, N4-(3-(pyrazin-2-yl)phenyl)pyrimidine-2,4,6-triamine]",5.30 to 6.30
18,"Nc1nc(NC2CC2)nc(N2CCN[C@@H](c3ccccc3Br)C2)n1 (stereo in doubt) [Compound 65, (S/R)-6-(3-(2-bromophenyl)piperazin-1-yl)-N2-cyclopropyl-1,3,5-triazine-2,4-diamine]",5.30 to 6.30
19,"CN(C)CCCNC(=O)c1ccc(-c2cc3cccnc3c(O)c2F)cc1 [Compound 308, N-(3-(dimethylamino)propyl)-4-(7-fluoro-8-hydroxyquinolin-6-yl)benzamide]",> 6.30
20,"CC(C)c1cc(Nc2cccc(CC3CCNC3=O)c2)nc(N)n1 (stereo not shown) [Compound 197, 3-(3-((2-amino-6-isopropylpyrimidin-4-yl)amino)benzyl)pyrrolidin-2-one]",< 5.30
